Tested on: Helicobacter pylori
Assay: Inhibition of H. pylori growth on LB/sheep blood agar plates containing DSW extract
Assay type: cell-based, Helicobacter pylori (ten samples from different patients)
Conditions: same concentration of magnesium ions as the DSW extract (MgCl2 285 and 570 mg/L)
From the text: The present invention validates that the active components of the deep sea water extract having ability of inhibiting H. pylori growth are not associated with high magnesium, calcium ions and high hardness. […] Also, the present invention uses mass spectrometry to show a relational graph between the intensity value of the 1,070 component of the DSW extract and inhibiting H. pylori growth rate. In one embodiment, prepare the LB agar having the DSW extract with different hardness, the DSW extract with different concentration of EDTA or different concentration of MgCl2, follow by filtration through the 0.22 μm filter membrane or sterilization in an autoclave. Mix the LB agar with sheep blood, and pour the mixture into each 9-cm culture plate. Let each plate cool until its solid to form agar plate. For the LB agar having different concentration of MgCl2, take 2.85 mg MgCl2, add other nutrients and water to make 10 mL agar plate, the agar plate contains 285 mg/L MgCl2. According to above-mentioned procedure, the agar plats having different concentration of MgCl2 are 285 mg/L and 570 mg/L. The present invention also prepares the LB agar having the DSW extract with 1,200 ppm to 6,000 ppm and the 2,400 ppm DSW extract with different concentration of EDTA. The present invention identifies the active components of the DSW extract having the ability of inhibiting H. pylori growth. […]

[Cl-].[Cl-].[Mg+2] [magnesium ions, MgCl2] was tested, and the “ability of inhibiting H. pylori growth” value was “does not have the ability of inhibiting H. pylori growth”.

Source: US10617719B2, “Deep sea water extract and use thereof” (Taiwan DOW Biotech Co., Ltd., priority 2015, dated 2020)
